Data: article PMC7795662, “Alkaloids with Anti-Onchocercal Activity from Voacanga africana Stapf (Apocynaceae): Identification and Molecular Modeling” (Molecules, 2020)
Like-named read-outs stand apart in the source and are kept apart here.

How the values were obtained:
Format in all cases: cell-based
[1] = tested on: Onchocerca ochengi microfilariae; experiment: O. ochengi microfilariae (Mf) motility assay, primary and secondary screens; details: for % Mf Motility Reduction after 24 h: positive control; for inhibition at 30 µM / IC50: Onchocerca ochengi; for inhibition at 30 µM: 24 h, read-out: % Mf Motility Reduction after 24 h; for IC50 / IC100 Mf: secondary screen; for IC50: motility, read-out: IC50 Mf; for effect on motility of microfilariae (in words): dose-dependent manner; for SI Mf: selectivity index = IC50 on LLC-MK2 cells (CC50) / IC50 on parasites
Method: Briefly, Mf were prepared using the method described by Cho-Ngwa et al., with slight modifications. A few skin snips were obtained from different locations and incubated in aliquots of culture medium for 15 min, after which the emergent Mf were qualified and quantified using an inverted microscope and standard atlases. The leftover pieces of skin were shaved, rinsed, sterilized with 70% ethanol and sliced into thin slivers. The slivers were incubated in CCM for 2 h, and the emergent highly motile O. ochengi Mf were concentrated by centrifugation. The Mf were transferred to 96-well micro titer plates (15 Mf/100 μL/well) containing a fully confluent LLC-MK2 cell layer in 100 μL of CCM. This was monitored for viability and sterility for 24 h before addition of test and control compounds.
The biological assays were conducted in duplicate in the 96-well microtiter plates. The Mf were incubated with the drug for 120 h in a total of 200 μL of medium. Mf viability was assessed by microscopy once every day and motility inhibition scores were recorded. […] Motility inhibition correlates to drug activity. The positive control drug was amorcazine at 30 μM, and negative control was the diluent (DMSO).
Compounds showing 100% activity in the primary screens were re-tested as described under primary screens to determine the IC50 values. All assays were repeated at least once. The selectivity index (SI) of each extract was calculated as the ratio of the IC50 of the extract on the mammalian cell (termed CC50) to the IC50 on parasites.

[2] = tested on: Onchocerca ochengi adult male worms; experiment: O. ochengi adult male worm motility assay, primary and secondary screens; details: for inhibition at 30 µM: Onchocerca ochengi, 24 h, read-out: % Adult Male Worm Motility Reduction after 24 h
[3] = tested on: Onchocerca ochengi adult female worms; experiment: O. ochengi adult female worm viability, MTT/formazan assay; details: for killing at 30 µM: read-out: % Adult Female Worm Death after 120 h; for activity on adult female worms (in words): biochemical assessment at 30 μM; for IC100 Adult Female Worm: secondary screen
Method: (§1) The isolation of O. ochengi adult worms was performed as described previously by Cho-Ngwa et al.. Briefly, fresh pieces of umbilical cattle skin with palpable nodules bought from butchery in Douala, Cameroon were washed, drained and sterilized with 70% ethanol. The worms were carefully scraped out of the nodules as single masses and temporarily submerged in 1 mL complete culture medium, CCM [RPMI-1640 (Sigma-Aldrich, St. Louis, MO, USA) supplemented with 25 mM HEPES, 2 g/L sodium bicarbonate, 2 mM L-glutamine, 5% newborn calf serum (SIGMA, St. Louis, MO, USA), 150 units/mL penicillin, 150 µg/mL streptomycin and 0.5 µg/mL amphotericin B (SIGMA, St. Louis, MO, USA), pH 7.4)] using 24-well plates. The adult worms were incubated in the culture medium overnight in a CO2 incubator, during which period the male worms migrated out of the nodular masses. Only wells containing viable worms received treatment with test compounds. Damaged worms and worms from putrefied nodules were discarded. The viability of worms retained for the assay was ascertained by visual and microscopic examination of adult male worm motility using an inverted microscope.
(§2) The compounds were tested on […] at a single concentration of 30 μM, in duplicate wells. […] The female worms were removed and incubated in 500 μL of 0.5 μg/mL MTT for the last 30 min of incubation. Inhibition of formazan formation from MTT directly correlates with worm death. The worms were blotted on absorbent paper and observed visually for blue coloration against a white background. […] Auranofin at 10 μM, which had previously shown activity against O. ochengi adult worms and Mf, was used as a positive control, while negative control wells received the diluent, 2% DMSO only, previously shown to have no effect on parasite viability. The solvent DMSO (2%) was used as a negative control. […] Furthermore, the toxicity of DMSO decreases with dilution.
(§3) The pure compounds with 100% activity at primary screens were re-tested as described under primary screens, in order to determine the IC50 values. The IC50 assays were performed in triplicate and each experiment repeated for confirmation. The means of all activities at a concentration were calculated and used in the statistical analyses. GraphPadPrism version 6.0 (GraphPad Software, San Diego, CA, USA) was used to generate dose response curves from which the IC50 values were obtained.

[4] = tested on: Monkey kidney epithelial cells (LLC-MK2); experiment: Cytotoxicity on monkey kidney epithelial cells, microscopic; details: Primates, LLC-MK2, 120 h; cytotoxicity, day 5, estimated from morphological deformation; read-out: IC50 Monkey Kidney Cells (LLC-MK2)
Method: Monkey kidney epithelial cells (LLC-MK2) (ATCC, Manassas, VA, USA) were cultured at 37 °C in humidified air with 5% CO2 in a Hera Cell-150 incubator (Thermo Electron, Karlsruhe, Germany) until the cell layer was almost confluent. The cell suspension was dispensed into 96-well micro titer plates (200 µL/well) and kept in the incubator for 3–5 days for cells to grow and become fully confluent. These cells served as feeder layers for the Mf assays and were also used for cytotoxicity studies.
Cytotoxicity of the pure compounds with anti-onchocercal activities was assessed on LLC-MK2 cells, microscopically, on day 5 of the Mf assay. Living cells were flattened out and attached to the culture plate, while dead cells were rounded up and detached from the plate. The IC50 values for these cells were estimated from the morphological deformation data.

[5] = tested on: Onchocerca ochengi adult male worms; experiment: O. ochengi adult male worm motility assay, primary and secondary screens; details: for IC50: Onchocerca ochengi, read-out: IC50 Adult Male Worm; for effect on motility of adult male worms (in words): dose-dependent manner; for IC100 Adult Male Worm: secondary screen; for SI Adult Male Worm: selectivity index = IC50 on LLC-MK2 cells (CC50) / IC50 on parasites
Method: as §1, §2
Adult male worm motility was evaluated with the aid of an inverted microscope.
as §3

Compound	% Mf Motility Reduction after 24 h ([1]; 10 μM) [%]	% Adult Male Worm Motility Reduction after 24 h ([2]; positive control, 10 μM) [%]	% Adult Female Worm Death after 120 h ([3]; positive control, 10 μM, % inhibition of formazan formation) [%]	IC50 [4] [µM]	inhibition at 30 µM [1] [%]	IC50 [1] [µM]	effect on motility of microfilariae (in words) [1]	IC100 Mf [1] [µM]	SI Mf [1]	IC50 [5] [µM]	effect on motility of adult male worms (in words) [5]	IC100 Adult Male Worm [5] [µM]	SI Adult Male Worm [5]	inhibition at 30 µM [2] [%]	killing at 30 µM ([3]; Onchocerca ochengi, 120 h) [%]	activity on adult female worms (in words) [3]	IC100 Adult Female Worm [3] [µM]	inhibition at 30 µM ([1]; primary screen, 30 μM) [%]	inhibition at 10 µM ([3]; Onchocerca ochengi, 120 h, read-out: inhibition of formazan formation in adult female worms) [%]	% Mf Motility Reduction after 24 h ([1]; 10 μg/mL) [%]
CC(=O)OC[C@H]1O[C@@H]([S-])[C@H](OC(C)=O)[C@@H](OC(C)=O)[C@@H]1OC(C)=O.CCP(CC)CC.[Au+] [Auranofin, reference compound]	100	100	100																	
C/C=C1\CN(C)C2Cc3c([nH]c4ccccc34)[C@@H](c3cc4[nH]c5c(c4cc3OC)CCN3CC4C[C@H](CC)C3[C@@]5(C(=O)OC)C4)CC1C2C(=O)OC (some centres unmarked) [Compound 1, voacamine A]				≥ 30	100	3.69	inhibit the motility	7.38	8.13	4.45	inhibit the motility	8.90	6.74	100	65	moderately active	>30			
COC(=O)[C@@]12C[C@@H]3C[C@H]([C@H](C)O)[C@@H]1N(CCc1c2[nH]c2ccc(OC)cc12)C3 [Compound 3, voacristine]				≥ 30		4.34	inhibit the motility	8.68	6.91	8.07	inhibit the motility	16.14	3.71	100	50	moderately active	>30	100		
CC[C@H]1C[C@@H]2CN3CCc4c([nH]c5ccccc45)[C@](C(=O)OC)(C2)[C@H]13 [Compound 4, coronaridine]				≥ 30		4.21	inhibit the motility	8.42	7.13	8.68	inhibit the motility	17.36	3.45	100	50	moderately active	>30	100		
CC[C@H]1C[C@@H]2C[C@H]3c4[nH]c5cc(OC)ccc5c4CC[N@@](C2)[C@@H]13 [Compound 5, tabernanthine]					0		almost inactive				almost inactive			0	0	almost inactive				
CN1CCN(C(=S)Nc2ccc(Nc3ccc([N+](=O)[O-])cc3)cc2)CC1 [amocarzine, reference compound]																			100	
Ivermectin [reference compound]																				100
